Test results reported in US20060004051A1, “Compounds” (priority 2002, published 2006).

Columns and labels:
[1] = system: TGF-β signalling (PAI-1 promoter linked to firefly luciferase) in HepG2 cells; assay: Cellular transcriptional assay (PAI-1 promoter luciferase reporter, TGF-β stimulated); conditions: for IC50: Homo sapiens, HepG2, read-out: TGF-β cellular activity (IC50)
Protocol: The assay was performed in HepG2 cells stably transfected with the PAI-1 promoter (known to be a strong TGF-β responsive promoter) linked to a luciferase (firefly) reporter gene. The compounds were selected on their ability to inhibit luciferase activity in cells exposed to TGF-β. In addition, cells were transfected with a second luciferase (Renilla) gene which was not driven by a TGF-β responsive promoter and was used as a toxicity control.
96 well microplates were seeded, using a multidrop apparatus, with the stably transfected cell line at a concentration of 35000 cells per well in 200 μl of serum-containing medium. These plates were placed in a cell incubator.
18 to 24 hours later (Day 2), cell-incubation procedure was launched. Cells were incubated with TGF-β and a candidate compound at concentrations in the range 50 nM to 10 μM (final concentration of DMSO 1%). The final concentration of TGF-β (rhTGFβ-1) used in the test was 1 ng/mL. […] The final volume of the test reaction was 150 μl. Each well contained only one candidate compound and its effect on the PAI-1 promoter was monitored.
Columns 11 and 12 were employed as controls. Column 11 contained 8 wells in which the cells were incubated in the presence of TGF-β, without a candidate compound. Column 11 was used to determine the ‘reference TGF-β induced firefly luciferase value’ against which values measured in the test wells (to quantify inhibitory activity) were compared. In wells A12 to D12, cells were grown in medium without TGF-β. […]
12 to 18 hours later (day 3), the luciferase quantification procedure was launched. […] Following agitation (15 to 30 mins), luciferase activities of the plates were read in a dual-injector luminometer (BMG lumistar). For this purpose, 50 μl of luciferase assay reagent and 50 μl of ‘Stop & Glo’ buffer were injected sequentially to quantify the activities of both luciferases. […] For each of the compounds tested, a concentration response curve was constructed from which an IC50 value was determined graphically.

[2] = target: T1, recombinant GST-ALK5 (residues 198-503) (Homo sapiens, UniProt P36897); assay: Alk5 fluorescence polarization assay; format: binding; conditions: rhodamine green-labelled ligand 1 nM, ALK5 10 nM, read-out: ALK5 receptor modulator activity (IC50)
T1 construct: recombinant GST-ALK5 (residues 198-503)
T1 sequence (P36897 198-503): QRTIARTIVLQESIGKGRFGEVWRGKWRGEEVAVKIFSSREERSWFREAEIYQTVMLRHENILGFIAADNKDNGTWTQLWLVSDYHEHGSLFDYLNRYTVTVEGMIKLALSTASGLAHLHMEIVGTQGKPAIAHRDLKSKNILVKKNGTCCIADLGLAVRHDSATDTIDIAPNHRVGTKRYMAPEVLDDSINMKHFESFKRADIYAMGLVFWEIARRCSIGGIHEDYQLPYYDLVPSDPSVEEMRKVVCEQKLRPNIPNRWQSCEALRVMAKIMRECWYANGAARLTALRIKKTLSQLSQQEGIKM
Protocol: Assay 2 (Alk5 Fluorescence Polarization Assay)
Kinase inhibitor compounds conjugated to fluorophores, can be used as fluorescent ligands to monitor ATP competitive binding of other compounds to a given kinase. The increase in depolarization of plane polarized light, caused by release of the bound ligand into solution, is measured as a polarization/anisotropy value. This protocol details the use of a rhodamine green-labelled ligand for assays using recombinant GST-ALK5 (residues 198-503).
Assay buffer components: 62.5 mM Hepes pH 7.5 (Sigma H-4034), 1 mM DTT (Sigma D-0632), 12.5 mM MgCl2 (Sigma M-9272), 1.25 mM CHAPS (Sigma C-3023). […]
ALK5 was added to assay buffer containing the above components and 1 nM of the rhodamine green-labelled ligand so that the final ALK5 concentration was 10 nM based on active site titration of the enzyme. […] The plates were read immediately on a LJL Acquest fluorescence reader (Molecular Devices, serial number AQ1048) with excitation, emission, and dichroic filters of 485 nm, 530 nm, and 505 nm, respectively. The fluorescence polarization for each well was calculated by the Acquest reader and then imported into curve fitting software for construction of concentration response curves. The normalized response was determined relative to the high controls (1 μl DMSO in column 12, rows A-D) and the low controls (1 μl of control compound in column 12, rows E-H). […]

| Structure (SMILES) | melting point | also measured |
| --- | --- | --- |
| O=C1C=CCC1 [CPO, Cyclopentenone, reference compound] | – | firefly and renilla luciferase activities (toxicity control) ([1]; 500 μM CPO with TGF-β, relative to TGF-β only): around 50% |
| Nc1nc(-c2ccccn2)c(-c2ccnc(-c3ccc(N4CCOCC4)cc3)c2)s1 [Example 1] | 246 °C | – |
| Cc1cccc(-c2nc(N)sc2-c2ccnc(-c3ccc(S(C)(=O)=O)cc3)c2)n1 [Example 2, 5-{2-[4-(methanesulfonyl)phenyl]pyridin-4-yl}-4-(6-methylpyridin-2-yl)-1,3-thiazol-2-amine] | 236 to 238 °C | – |
| Cc1cccc(-c2nc(N)sc2-c2ccnc(-c3ccc(C(=O)NC4CCOCC4)cc3)c2)n1 [Example 6, 5-{2-[4((tetrahydropyran-4-yl)-aminocarbonyl)-phenyl]pyridin-4-yl}-4-(6-methylpyridin-2-yl)-1,3-thiazol-2-amine] | 230 to 232 °C | – |
| Cc1cccc(-c2nc(N)sc2-c2ccnc(-c3ccc(OCCN4CCCC4)cc3)c2)n1 [Example 11, 5-{2-[4-(2-(pyrrolidin-1-yl)-ethoxy)-phenyl]pyridin-4-yl}-4-(6-methylpyridin-2-yl)-1,3-thiazol-2-amine] | 176 to 178 °C | – |
| Cc1cccc(-c2sc(N)nc2-c2ccnc(-c3ccc(Cl)cc3)c2)n1 [Example 13, 4-[2-(4-chlorophenyl)pyridin-4-yl]-5-(6-methylpyridin-2-yl]-1,3-thiazol-2-amine] | 222 °C | – |
| Cc1cccc(-c2sc(N)nc2-c2ccnc(-c3ccc(C(=O)N4CCOCC4)cc3)c2)n1 [Example 17] | 246 °C | – |
| CCN1CCN(C(=O)c2ccc(-c3cc(-c4nc(N)sc4-c4cccc(C)n4)ccn3)cc2)CC1 [Example 18] | 224 °C | – |
| Cc1cccc(-c2sc(N)nc2-c2ccnc(-c3ccc(OCCN4CCCC4)cc3)c2)n1 [Example 21, 4-[2-(4-(2-(pyrolidin-1-yl)-ethoxy)phenyl)pyridin-4-yl]-5-[6-methylpyridin-2-yl]-1,3-thiazol-2-amine] | 150 °C | – |
| Cc1cccc(-c2sc(N)nc2-c2ccnc(-c3ccc(OCC(N)=O)cc3)c2)n1 [Example 22, 4-[2-(4-(aminocarbonylmethyloxy)phenyl)pyridin-4-yl]-5-[6-methylpyridin-2-yl]-1,3-thiazol-2-amine] | 191 °C | – |
| Cc1cccc(-c2sc(N)nc2-c2ccnc(-c3ccc(OCC(=O)N4CCOCC4)cc3)c2)n1 [Example 23, 4-[2-(4-((morpholin-4-yl)carbonylmethyloxy)phenyl)pyridin-4-yl]-5-[6-methylpyridin-2-yl]-1,3-thiazol-2-amine] | 172 °C | – |
| Nc1nc(-c2ccnc(-c3ccc(N4CCOCC4)cc3)c2)c(-c2ccccn2)s1 [Example 27, 4-[2-(4-(morpholin-4-yl)phenyl)pyridin-4-yl]-5-[pyridin-2-yl]-1,3-thiazol-2-amine] | 276 °C | – |

Second part, led by results:

| melting point | Structure (SMILES) | also measured |
| --- | --- | --- |
| 230 to 232 °C | CCN1CCN(c2ccc(-c3cc(-c4sc(N)nc4-c4cccc(C)n4)ccn3)cc2)CC1 [Example 3] | IC50 [2]: 14 nM; IC50 [1]: 29 nM |
| 250 to 252 °C | Cc1cccc(-c2nc(N)sc2-c2ccnc(-c3ccc(N4CCOCC4)cc3)c2)n1 [Example 4, 5-{2-[4-(morpholin-4-yl)phenyl]pyridinyl-4-yl}-4-(6-methylpyridin-2-yl)-1,3-thiazol-2-amine] | – |
| 158 to 160 °C | Cc1cccc(-c2nc(N)sc2-c2ccnc(-c3ccc(C(=O)N4CCOCC4)cc3)c2)n1 [Example 5, 5-{2-[4-((morpholin-4-yl)carbonyl)phenyl]pyridin-4-yl]-4-(6-methylpyridin-2-y)-1,3-thiazol-2-amine] | – |
| 190 to 192 °C | Cc1cccc(-c2nc(N)sc2-c2ccnc(-c3ccc(CN4CCOCC4)cc3)c2)n1 [Example 7, 5-{2-[4-((morpholin-4-yl)methyl)phenyl]pyridin-4-yl}-4-(6-methylpyridin-2-yl)-1,3-thiazol-2-amine] | – |
| 188 to 190 °C | COc1ccc(-c2cc(-c3sc(N)nc3-c3cccc(C)n3)ccn2)cc1 [Example 8, 5-{2-[4methoxyphenyl]pyridin-4-yl}-4-(6methylpyridin-2-yl)-1,3-thiazol-2-amine] | – |
| 222 to 224 °C | Cc1cccc(-c2nc(N)sc2-c2ccnc(-c3ccc(OC(F)(F)F)cc3)c2)n1 [Example 9, 5-{2-[4-trifluoromethoxyphenyl]pyridin-4-yl}-4-(6-methylpyridin-2-yl)-1,3-thiazol-2-amine] | – |
| 226 to 228 °C | Cc1cccc(-c2nc(N)sc2-c2ccnc(-c3ccc(OCc4cn(C)cn4)cc3)c2)n1 [Example 12, 5-{2-[4-((1-methyl-imidazol-4-yl)methyloxy)-phenyl]pyridin-4-yl}-4-(6-methylpyridin-2-yl)-1,3-thiazol-2-amine] | – |
| 232 °C | Cc1cccc(-c2sc(N)nc2-c2ccnc(-c3ccc(OC(F)(F)F)cc3)c2)n1 [Example 14, 4-[2-(4-trifluoromethoxyphenyl)pyridin-4-yl]-5-[6-methylpyridin-2-yl]-1,3-thiazol-2-amine] | – |
| 236 °C | Cc1cccc(-c2sc(N)nc2-c2ccnc(-c3ccc(CN4CCOCC4)cc3)c2)n1 [Example 19, 4-[2-(4-((morpholin-4-yl)methyl)phenyl)pyridin-4-yl]-5-[6-methylpyridin-2-yl]-1,3-thiazol-2-amine] | – |
| 246 °C | Cc1cccc(-c2sc(N)nc2-c2ccnc(-c3ccc(N4CCOCC4)cc3)c2)n1 [Example 20, 4-[2-(4-(morpholin-4-yl)phenyl)pyridin-4-yl]-5-[6-methylpyridin-2-yl]-1,3-thiazol-2-amine] | – |
| 200 °C | Cc1cccc(-c2sc(N)nc2-c2ccnc(-c3ccc(CN4CCCC4)cc3)c2)n1 [Example 24, 4-[2-(4-((pyrrolidin-1-yl)methyl)phenyl)pyridin-4-yl]-5-[6-methylpyridin-2-yl]-1,3-thiazol-2-amine] | – |
| 210 °C | Cc1cccc(-c2sc(N)nc2-c2ccnc(-c3ccc(CN(C)C)cc3)c2)n1 [Example 25, 4-[2-(4-((dimethylamino)methyl)phenyl)pyridin-4-yl]-5-[6-methylpyridin-2-yl]-1,3-thiazol-2-amine] | IC50 [2]: 29 nM; IC50 [1]: 31 nM |
| 268 °C | Nc1nc(-c2ccnc(-c3ccc(C(=O)NC4CCOCC4)cc3)c2)c(-c2ccccn2)s1 [Example 26, 4-[2-(4-((tetrahydropyran-4-yl)aminocarbonyl)phenyl)pyridin-4-yl]-5-[pyridin-2-yl]-1,3-thiazol-2-amine] | – |
